Data reported in the METLIN SMRT retention time set (Domingo-Almenara et al. 2019).

Assay: gradient 5% acetonitrile 3 min, to 50% in 2 min, to 85% in 15 min, held 3 min, 100 µL/min
Details: column: Zorbax Extend-C18 2.1 x 50 mm; eluents: water / acetonitrile, 0.1% formic acid
Procedure, shortened: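 A Zorbax Extend-C18 column (2.1 × 50 mm, 1.8 μm) run at 100 μL/min with water and acetonitrile, both containing 0.1% formic acid, separated mixtures of ~100 pure standards. The HPLC was coupled to a quadrupole time-of-flight mass spectrometer operated in positive and negative ionization mode, with dead and dwell volumes of 40 μL and 900 μL. Each retention time was taken from a computationally picked adduct peak that was then manually inspected.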

SMILES	RP-LC retention time [s]
COc1cc(OC)cc(N2C(=O)C3N=NN(Cc4nc(-c5cccc(Cl)c5)no4)C3C2=O)c1 (stereo unspecified)	1020
NC1CCN(O)C1=O (stereo unspecified)	621
O=C(Nc1cccc(Cl)c1)N1CCCC1c1nc(-c2ccc(F)cc2F)no1 (stereo unspecified)	1030
Cc1cc(=O)n(CC(=O)N2CCc3ccccc32)c(N2CCCC2)n1	664
O=C(c1ccc(F)c(F)c1)N1CCN(C(=O)c2nnn3c2COC(c2ccccc2)C3)CC1 (stereo unspecified)	876
Cc1cccc(-c2noc(Cn3c(=O)n(-c4cccc(C)c4)c(=O)c4sccc43)n2)c1	1090
COc1ccc(NC(=O)N2CCC3(C2)C(=O)Nc2ccccc23)cc1OC (stereo unspecified)	676
Cc1ccc(C2(O)C(=O)N(Cc3nc(-c4ccccc4)oc3C)c3ccccc32)cc1 (stereo unspecified)	1110
CC(C)(C)c1csc(-c2csc(S(=O)(=O)NCCN3CCc4ccccc4C3)c2)n1	846
COc1ccc(C2(C(=O)N3CC(n4ccnc4C(C)C)C3)CC2)cc1	626
CC(C)CNC(=O)N1CCCCC1c1nncn1-c1ccccc1 (stereo unspecified)	683
CCc1cccc(NC(=O)Cn2nc3cc(C)nc(Nc4ccccc4C)n3c2=O)c1	711
CCC1Oc2ccc(S(=O)(=O)N3CCC(C(=O)Nc4cc(Cl)ccc4C)CC3)cc2NC1=O (stereo unspecified)	948
CC(NC(=O)c1ccco1)c1nc(-c2ccc(N3CCCCC3)cc2)no1 (stereo unspecified)	859
Cn1nc(-c2nnc(-c3ccccc3)o2)c2c1CCN(S(=O)(=O)c1cc(F)ccc1F)C2	940
Oc1ccc(-c2nc3ccc(Cl)cn3c2Nc2ccc3c(c2)OCCO3)cc1	748
Cc1cnc(C(=O)N2CC(c3nc(CCOC4CCCC4)no3)C2)cn1	777
COc1ccc(S(=O)(=O)N2CCCC(C(=O)Nc3ccc(F)cc3)C2)cc1OC (stereo unspecified)	831

SMILES	RP-LC retention time [s]
Cc1cnn(Cc2nc(-c3ccc(NC(=O)c4cccs4)cc3)oc2C)c1	879
CCCn1cc(CCNC(=O)Nc2ccc(C)c(Cl)c2)c2cccnc21	884
O=C(Cc1ccc(Cl)cc1)N1CCN(c2cnn3cnnc3c2)CC1	656
CCN(CC)CCCNC(=O)C1CCC(=O)N(c2ccc(OC)cc2)C1c1ccc(F)cc1 (stereo unspecified)	614
CCc1nn(C(C)C(=O)NCCc2c[nH]c3ccccc23)c(=O)c2cc3occc3n12 (stereo unspecified)	851
O=C(c1ccc(OCC2CCCN2C(=O)c2ccc(Cl)cc2)cc1)N1CCOCC1 (stereo unspecified)	795
COc1ccc(CNC(=O)C2c3ccccc3C(=O)N3CCc4ccccc4C23)c(OC)c1 (stereo unspecified)	796
Cn1c(=O)c2nc(SCCC(=O)Nc3ccc(Br)cc3F)n(C)c2n(C)c1=O	806
Cc1ccc(CNC(=O)NC2CCN(C(=O)N3C[C@H]4C[C@H](C3)[C@H]3CCCC(=O)N3C4)CC2)cc1	681
CC(=O)Nc1ccc(OCC(=O)O)nc1	574
O=S(=O)(Cc1cccc(Cl)c1)N1CCc2nc(-c3ccc(Cl)cc3)ncc2C1	1210
Oc1ccc(-c2csc(Nc3ccccn3)n2)cc1	646
CCn1nccc1-c1cccc(-c2noc(-c3cccc(NC(C)=O)c3)n2)c1	924
Cc1ccc2nc(C(=O)NCc3cccc(F)c3)cn2c1	689
COc1ccc(NC(=O)N2CCC3(CC2)NC(=O)c2cccc(Cl)c2N3)c(C)c1	834
CC(C)NC(=O)N1CCC2(CC1)Nc1cc(F)ccc1-n1cccc12	895
COc1cc(Cl)c(CC(=O)c2c[nH]c3ccccc23)cc1OC	883
Cc1cc2c(cc1S(=O)(=O)N1CCCC1C(=O)Nc1ccc(F)cc1F)OCC(=O)N2 (stereo unspecified)	774
